ChEMBL document CHEMBL5120863, “Sophorolipids: Anti-cancer activities and mechanisms” (Bioorg Med Chem, 2022)
Converted amounts (≈) assume the structure as drawn.

What was measured:
[1] = test system: HeLa; assay: Cytotoxicity against human HeLa cells assessed as cell growth inhibition measured after 48 hrs by MTT assay; format: functional, cell-based
[2] = test system: PANC-1; assay: Cytotoxicity against human PANC-1 cells assessed as cell growth inhibition measured after 72 hrs by MTT assay; format: functional, cell-based; conditions: PANC-1, 72 h
[3] = Cytotoxicity against human HUVEC cells assessed as cell growth inhibition measured after 48 hrs by MTT assay; format: toxicity, cell-based
[4] = test system: A549; assay: Cytotoxicity against human A549 cells assessed as cell growth inhibition measured after 48 hrs by MTT assay; format: functional, cell-based; conditions: A549, 48 h
[5] = test system: HCT-116; assay: Cytotoxicity against human HCT-116 cells assessed as cell growth inhibition measured after 48 hrs by MTT assay; format: functional, cell-based; conditions: HCT-116, 48 h
[6] = test system: A-431; assay: Cytotoxicity against human A-431 cells assessed as cell growth inhibition measured after 48 hrs by MTT assay; format: functional, cell-based; conditions: A-431, 48 h
[7] = test system: PANC-1; assay: Cytotoxicity against human PANC-1 cells assessed as cell growth inhibition measured after 48 hrs by MTT assay; format: functional, cell-based; conditions: PANC-1, 48 h
[8] = test system: MCF7; assay: Cytotoxicity against human MCF7 cells assessed as cell growth inhibition measured after 48 hrs by MTT assay; format: functional, cell-based; conditions: MCF7, 48 h
[9] = Cytotoxicity against human L929 cells assessed as cell growth inhibition measured after 48 hrs by MTT assay; format: toxicity, cell-based; conditions: mouse
[10] = test system: HPAC; assay: Cytotoxicity against human HPAC cells assessed as reduction in LDH release at 100 ug/ml measured after 12 hrs by CytoTox96 nonradioactive assay; format: functional; parameters: scale not given: the % may be the effect or the level left; conditions: dose 100 µg/ml
[11] = test system: Jurkat; assay: Cytotoxicity against human Jurkat cells assessed as reduction in cell viability at 25 ug/ml measured after 24 hrs; format: functional; conditions: dose 25 µg/ml
[12] = Antitumor activity against human HeLa cells xenografted in BALB/c mouse assessed as reduction in tumor weight at 5 mg/kg, IG administered once daily for 12 days measured after 14 days; format: functional; parameters: scale not given: the % may be the effect or the level left; conditions: time 12 day
[13] = Antitumor activity against human HeLa cells xenografted in BALB/c mouse assessed as reduction in tumor weight at 50 mg/kg, IG administered once daily for 12 days measured after 14 days; format: functional; parameters: scale not given: the % may be the effect or the level left; conditions: time 12 day
[14] = Antitumor activity against human HeLa cells xenografted in BALB/c mouse assessed as reduction in tumor weight at 500 mg/kg, IG administered once daily for 12 days measured after 14 days; format: functional; parameters: scale not given: the % may be the effect or the level left; conditions: time 12 day
[15] = test system: MDA-MB-231; assay: Cytotoxicity against human MDA-MB-231 cells assessed as cell growth inhibition measured after 24 hrs by crystal violet staining based assay; format: functional; conditions: MDA-MB-231, 24 h
[16] = test system: HL-60; assay: Cytotoxicity against human HL-60 cells assessed as cell growth inhibition measured after 48 hrs; format: functional, cell-based; conditions: HL-60, 48 h
[17] = test system: HeLa; assay: Cytotoxicity against human HeLa cells assessed as cell growth inhibition measured after 24 hrs by MTT assay; format: functional, cell-based
[18] = test system: THP-1; assay: Cytotoxicity against human THP-1 cells assessed as cell growth inhibition measured after 24 hrs by MTT assay; format: functional, cell-based; conditions: THP-1, 24 h
[19] = Cytotoxicity against human HEK293 cells assessed as cell growth inhibition measured after 72 hrs by MTT assay; format: toxicity, cell-based
[20] = test system: THP-1; assay: Cytotoxicity against human THP-1 cells assessed as cell growth inhibition measured after 72 hrs by MTT assay; format: functional, cell-based; conditions: THP-1, 72 h
[21] = test system: MCF7; assay: Cytotoxicity against human MCF7 cells assessed as reduction in cell viability at 14.7 ug/ml measured after 24 hrs by MTT assay relative to control; format: functional; conditions: dose 14.7 µg/ml
[22] = Cytotoxicity against human HEK293 cells assessed as cell growth inhibition measured after 24 hrs by MTT assay; format: toxicity, cell-based
[23] = test system: MDA-MB-231; assay: Cytotoxicity against human MDA-MB-231 cells assessed as reduction in cell viability at 3.68 ug/ml measured after 48 hrs by MTT assay relative to control; format: functional; conditions: dose 3.68 µg/ml
[24] = test system: LS180; assay: Cytotoxicity against human LS180 cells assessed as cell growth inhibition; format: functional, cell-based
[25] = test system: MCF7; assay: Cytotoxicity against human MCF7 cells assessed as reduction in cell viability at 14.7 ug/ml measured after 48 hrs by MTT assay relative to control; format: functional; conditions: dose 14.7 µg/ml
[26] = test system: Jurkat; assay: Cytotoxicity against human Jurkat cells assessed as cell growth inhibition measured after 24 hrs; format: functional, cell-based
[27] = Cytotoxicity against human CCD-841CoN cells assessed as cell growth inhibition measured after 24 hrs by MTT assay; format: toxicity, cell-based
[28] = test system: Jurkat; assay: Cytotoxicity against human Jurkat cells assessed as cell growth inhibition measured after 45 hrs; format: functional, cell-based
[29] = test system: MDA-MB-231; assay: Cytotoxicity against human MDA-MB-231 cells assessed as reduction in cell viability at 3.68 ug/ml measured after 24 hrs by MTT assay relative to control; format: functional; conditions: dose 3.68 µg/ml
[30] = test system: THP-1; assay: Cytotoxicity against human THP-1 cells assessed as cell growth inhibition measured after 48 hrs by MTT assay; format: functional, cell-based; conditions: THP-1, 48 h
[31] = Cytotoxicity against human HEK293 cells assessed as cell growth inhibition measured after 48 hrs by MTT assay; format: toxicity, cell-based
[32] = test system: LN-229; assay: Cytotoxicity against human LN-229 cells assessed as cell growth inhibition measured after 48 hrs; format: functional, cell-based; conditions: LN-229, 48 h
[33] = test system: HT-29; assay: Cytotoxicity against human HT-29 cells assessed as cell growth inhibition; format: functional, cell-based
[34] = test system: Caco-2; assay: Cytotoxicity against human Caco2 cells assessed as cell growth inhibition measured after 24 by MTT assay; format: functional, cell-based
[35] = test system: A549; assay: Cytotoxicity against human A549 cells assessed as cell growth inhibition measured after 48 hrs; format: functional, cell-based; conditions: A549, 48 h
[36] = test system: ECa-109 cell line; assay: Cytotoxicity against human Eca-109 cells assessed as cell growth inhibition measured after 24 hrs by MTT assay; format: functional, cell-based; conditions: ECa-109, 24 h
[37] = test system: KYSE-450; assay: Cytotoxicity against human KYSE-450 cells assessed as cell growth inhibition measured after 24 hrs by MTT assay; format: functional, cell-based; conditions: KYSE-450, 24 h
[38] = test system: K562; assay: Cytotoxicity against human K562 cells assessed as cell growth inhibition measured after 48 hrs; format: functional, cell-based; conditions: K562, 48 h

## CCCCCCCCCCCCCCCCO[C@@H]1O[C@H](COC(C)=O)[C@@H](O)[C@H](O)[C@H]1O[C@@H]1O[C@H](CO)[C@@H](O)[C@H](O)[C@H]1O
[1]
  IC50: 14.1 µg/mL (≈ 23.2 µM)
[2]
  IC50: > 100 µg/mL
[3]
  IC50 at 48 h: > 320 µg/mL
[4]
  IC50: 15 µg/mL
[5]
  IC50: 23.2 µg/mL (≈ 38.1 µM)
[6]
  IC50: 14.9 µg/mL (≈ 24.6 µM)
[7]
  IC50: 116 µg/mL (≈ 191 µM)
[8]
  IC50: 37.7 µg/mL (≈ 61.9 µM)
[9]
  IC50 at 48 h: > 320 µg/mL

## CCOC(=O)CCCCCCC/C=C\CCCCCCC(C)O[C@@H]1O[C@H](CO)[C@@H](O)[C@H](O)[C@H]1O[C@@H]1O[C@H](CO)[C@@H](O)[C@H](O)[C@H]1O (stereo partly specified)
[10]
  Activity: 23.6%
[11]
  Activity: 0%

## CC(=O)OC[C@H]1O[C@H]2O[C@H]3[C@H](OC(C)CCCCCC/C=C\CCCCCCCC(=O)O[C@H]1[C@H](O)[C@H]2O)O[C@H](CO)[C@@H](O)[C@@H]3O (stereo partly specified)
[12]
  Activity: 29.9%
[13]
  Activity: 41.24%
[14]
  Activity: 52.06%
[15]
  IC50: 15 µM

## CCCCCCCCCCCCCCCCO[C@@H]1O[C@H](CO)[C@@H](O)[C@H](O)[C@H]1O[C@@H]1O[C@H](CO)[C@@H](O)[C@H](O)[C@H]1O
[1]
  IC50: 16.3 µg/mL (≈ 28.8 µM)
[2]
  IC50: > 100 µg/mL
[3]
  IC50 at 48 h: > 320 µg/mL
[4]
  IC50: 236 µg/mL
[5]
  IC50: 62.8 µg/mL (≈ 111 µM)
[6]
  IC50: 236 µg/mL (≈ 417 µM)
[7]
  IC50: 113 µg/mL (≈ 199 µM)
[8]
  IC50: 65.7 µg/mL (≈ 116 µM)
[9]
  IC50 at 48 h: > 320 µg/mL

## CC(CCCCCC/C=C\CCCCCCCC(=O)O)O[C@@H]1O[C@H](CO)[C@@H](O)[C@H](O)[C@H]1O[C@@H]1O[C@H](CO)[C@@H](O)[C@H](O)[C@H]1O (stereo partly specified)
[15]
  IC50: 80 µM

## CC(=O)OC[C@H]1O[C@H]2OC(C)/C=C/C/C=C/C/C=C\CCCCCCCC(=O)O[C@H]3[C@H](O)[C@@H](O)[C@H](O[C@@H]2[C@@H](O)[C@@H]1O)O[C@@H]3COC(C)=O (stereo partly specified)
[16]
  IC50: 5 µg/mL (≈ 7.3 µM)
[17]
  IC50: 51.5 µg/mL (≈ 75.2 µM)
[15]
  IC50: 30 µM

## CCCCOC(=O)CCCCCCC/C=C\CCCCCCC(C)O[C@@H]1O[C@H](COC(C)=O)[C@@H](O)[C@H](O)[C@H]1O[C@@H]1O[C@H](COC(C)=O)[C@@H](O)[C@H](O)[C@H]1O (stereo partly specified)
[11]
  Activity: 99%

## CCOC(=O)CCCCCCC/C=C\CCCCCCC(C)O[C@@H]1O[C@H](COC(C)=O)[C@@H](O)[C@H](O)[C@H]1O[C@@H]1O[C@H](COC(C)=O)[C@@H](O)[C@H](O)[C@H]1O (stereo partly specified)
[11]
  Activity: 90%

## COC(=O)CCCCCCC/C=C\CCCCCCC(C)O[C@@H]1O[C@H](CO)[C@@H](O)[C@H](O)[C@H]1O[C@@H]1O[C@H](CO)[C@@H](O)[C@H](O)[C@H]1O (stereo partly specified)
[10]
  Activity: 58.4%

## COc1cccc2c1C(=O)c1c(O)c3c(c(O)c1C2=O)C[C@@](O)(C(=O)CO)C[C@@H]3O[C@H]1C[C@H](N)[C@H](O)[C@H](C)O1 [DOXORUBICIN]
[1]
  IC50: 13 µg/mL (≈ 23.9 µM)
[18]
  IC50: 15.7 µg/mL (≈ 28.9 µM)
[19]
  IC50 at 72 h: 1 µg/mL (≈ 1.84 µM)
[20]
  IC50: 3 µg/mL (≈ 5.52 µM)
[21]
  Activity: 45%
[22]
  IC50 at 24 h: 16.7 µg/mL (≈ 30.7 µM)
[23]
  Activity: 45%
[17]
  IC50: 7.4 µg/mL (≈ 13.6 µM)
[24]
  IC50: 0.7 µg/mL (≈ 1.29 µM)
[25]
  Activity: 40%
[26]
  IC50: 1 µM
[4]
  IC50: 9.5 µM
[27]
  IC50 at 24 h: 1.5 µg/mL (≈ 2.76 µM)
[28]
  IC50: 0.3 µM
[29]
  Activity: 55%
[30]
  IC50: 6.5 µg/mL (≈ 12 µM)
[31]
  IC50 at 48 h: 6.1 µg/mL (≈ 11.2 µM)
[32]
  IC50: 2 µg/mL (≈ 3.68 µM)
[33]
  IC50: 1.6 µg/mL (≈ 2.94 µM)
[34]
  IC50: 64.2 µg/mL (≈ 118 µM)

## COC(=O)CCCCCCC/C=C\CCCCCCC(C)O[C@@H]1O[C@H](COC(C)=O)[C@@H](O)[C@H](O)[C@H]1O[C@@H]1O[C@H](COC(C)=O)[C@@H](O)[C@H](O)[C@H]1O (stereo partly specified)
[10]
  Activity: 25.5%

## CC(=O)OC[C@H]1O[C@H]2OC(C)CCCCCCCCCCCCCCCC(=O)O[C@H]3[C@H](O)[C@@H](O)[C@H](O[C@@H]2[C@@H](O)[C@@H]1O)O[C@@H]3COC(C)=O (stereo partly specified)
[17]
  IC50: 30.2 µg/mL (≈ 43.7 µM)
[15]
  IC50: 15 µM

## CC(=O)OC[C@H]1O[C@H]2OC(C)CCC/C=C/C/C=C\CCCCCCCC(=O)O[C@H]3[C@H](O)[C@@H](O)[C@H](O[C@@H]2[C@@H](O)[C@@H]1O)O[C@@H]3COC(C)=O (stereo partly specified)
[17]
  IC50: 476 µg/mL (≈ 694 µM)
[35]
  IC50: 22 µg/mL (≈ 32 µM)
[36]
  IC50: 15 µg/mL (≈ 21.8 µM)
[37]
  IC50: 35 µg/mL (≈ 51 µM)

## CCCCOC(=O)CCCCCCC/C=C\CCCCCCC(C)O[C@@H]1O[C@H](CO)[C@@H](O)[C@H](O)[C@H]1O[C@@H]1O[C@H](CO)[C@@H](O)[C@H](O)[C@H]1O (stereo partly specified)
[11]
  Activity: 0%

## CC(=O)OC[C@H]1O[C@H]2OC(C)/C=C/C/C=C/C/C=C\C/C=C/CCCCC(=O)O[C@H]3[C@H](O)[C@@H](O)[C@H](O[C@@H]2[C@@H](O)[C@@H]1O)O[C@@H]3COC(C)=O (stereo partly specified)
[38]
  IC50: 40 µg/mL (≈ 58.6 µM)

## CCOC(=O)CCCCCCC/C=C\CCCCCCC(C)O[C@@H]1O[C@H](COC(C)=O)[C@@H](O)[C@H](O)[C@H]1O[C@@H]1O[C@H](CO)[C@@H](O)[C@H](O)[C@H]1O (stereo partly specified)
[10]
  Activity: 27.4%
